The values below come from publication PMC4669708 (Cell Death & Disease, 2015).

One assay concerns the target CSK (Homo sapiens, UniProt P41240). Kind of assay: c-ponatinib pulldown LC-MS/MS. In kind it is binding. Summed up:
(§1)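 c-Ponatinib (25 nmol) immobilized on NHS-Sepharose was incubated with 10 mg whole cell lysate per replicate, in duplicate. Eluates were reduced, alkylated, trypsin-digested and analysed by gel-free 1D LC-MS/MS. Specificity was scored from Mascot, Phenyx and spectral counts, with competition by free compound.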

For a further assay, the target named is MAPK14 (Homo sapiens, UniProt Q16539). Kind of assay: c-ponatinib pulldown LC-MS/MS. In kind it is binding. The method, boiled down: as §1
Chain of MAPK14 (Q16539 whole entry): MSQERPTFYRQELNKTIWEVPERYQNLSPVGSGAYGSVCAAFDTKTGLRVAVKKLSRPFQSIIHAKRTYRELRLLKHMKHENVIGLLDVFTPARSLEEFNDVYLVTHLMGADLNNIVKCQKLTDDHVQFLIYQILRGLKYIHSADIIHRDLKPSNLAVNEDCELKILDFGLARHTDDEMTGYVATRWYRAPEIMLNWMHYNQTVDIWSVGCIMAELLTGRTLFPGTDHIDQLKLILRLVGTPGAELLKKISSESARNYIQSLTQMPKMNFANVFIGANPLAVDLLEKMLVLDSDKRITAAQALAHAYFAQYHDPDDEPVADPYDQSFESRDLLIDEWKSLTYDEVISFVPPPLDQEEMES
In the next assay the target is MELK (Homo sapiens, UniProt Q14680). Kind of assay: c-ponatinib pulldown LC-MS/MS. In kind it is binding. The method, boiled down:
as §1

The subject of another assay is 3T3-SA cells. Kind of assay: TNF-α/z-VAD (TZ)-induced necroptosis. In kind it is cell-based, murine. To be noted: Supplementary Figures 3a, b. As for the experimental part: (§2) Cells were seeded in 12-, 24- or 96-well plates at proper cell density. For necroptosis or apoptosis assays, cells were incubated with the indicated compound combinations at concentrations stated for 14–24 h. Smac mimetic and z-VAD-FMK were added 30–60 min before treatment with TNF-α, FasL or TRAIL. Cell viability was determined using CellTiter Glo Luminescent Cell Viability Assay (Promega, Fitchburg, WI, USA) according to the manufacturer's instructions. Luminescence was recorded with a SpectraMax M5Multimode plate reader (Molecular Devices, Sunnyvale, CA, USA). For flow cytometry-based determination of viability, cells were harvested, collected by centrifugation, washed once and resuspended in staining buffer (1 × PBS, 10% FBS). Cells were incubated with 0.5 μg/ml PI for 10 min at room temperature (RT) in the dark. Flow cytometric analyses were performed on an LSR Fortessa (BD Biosciences) and analyzed with FlowJo software version 7.6.3 (Tree Star Inc, Ashland, OR, USA). Cell size was evaluated by forward scatter. PI-negative normal-sized cells were considered living and data were normalized to values of untreated controls. For detection of apoptosis, cells were resuspended in Annexin V Binding Buffer (BioLegend, San Diego, CA, USA) and stained with 0.5 μg/ml PI and Alexa Fluor 647 Annexin V (BioLegend) according to manufacturer's instructions.

A further assay relates to L929 cells. Kind of assay: TNF-α/z-VAD-FMK-induced necroptosis. To be noted: Supplementary Figures 3c, d. In kind it is cell-based, murine. As for the experimental part:
as §2

The next assay concerns HT-29 cells. Kind of assay: TNF-α/Smac mimetic/z-VAD-FMK (TSZ)-induced necroptosis, cell viability. In kind it is cell-based, human. To be noted: Homo sapiens, HT-29; TSZ treatment; read-out: EC50 (necroptosis block). As for the experimental part:
as §2, with “controls.” for “controls. For detection of apoptosis, cells were resuspended in Annexin V Binding Buffer (BioLegend, San Diego, CA, USA) and stained with 0.5 μg/ml PI and Alexa Fluor 647 Annexin V (BioLegend) according to manufacturer's instructions.”

Chain of MELK (Q14680 whole entry): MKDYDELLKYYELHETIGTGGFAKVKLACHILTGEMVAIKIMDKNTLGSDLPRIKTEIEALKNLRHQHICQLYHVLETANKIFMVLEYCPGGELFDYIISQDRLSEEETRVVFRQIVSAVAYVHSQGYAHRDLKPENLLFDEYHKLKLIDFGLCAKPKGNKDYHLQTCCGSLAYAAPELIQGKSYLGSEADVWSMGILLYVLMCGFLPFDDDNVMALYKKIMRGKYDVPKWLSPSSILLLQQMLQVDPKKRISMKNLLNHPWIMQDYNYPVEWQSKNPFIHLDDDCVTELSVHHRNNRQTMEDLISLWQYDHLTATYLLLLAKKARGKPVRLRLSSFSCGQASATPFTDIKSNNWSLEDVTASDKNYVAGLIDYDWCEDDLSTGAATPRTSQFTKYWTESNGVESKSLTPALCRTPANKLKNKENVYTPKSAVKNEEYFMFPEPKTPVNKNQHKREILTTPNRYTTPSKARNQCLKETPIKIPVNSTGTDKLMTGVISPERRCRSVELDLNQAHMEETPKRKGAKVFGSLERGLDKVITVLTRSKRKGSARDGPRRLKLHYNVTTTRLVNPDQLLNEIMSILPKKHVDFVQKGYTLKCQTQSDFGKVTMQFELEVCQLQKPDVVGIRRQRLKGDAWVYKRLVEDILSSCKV
Chain of CSK (P41240 whole entry): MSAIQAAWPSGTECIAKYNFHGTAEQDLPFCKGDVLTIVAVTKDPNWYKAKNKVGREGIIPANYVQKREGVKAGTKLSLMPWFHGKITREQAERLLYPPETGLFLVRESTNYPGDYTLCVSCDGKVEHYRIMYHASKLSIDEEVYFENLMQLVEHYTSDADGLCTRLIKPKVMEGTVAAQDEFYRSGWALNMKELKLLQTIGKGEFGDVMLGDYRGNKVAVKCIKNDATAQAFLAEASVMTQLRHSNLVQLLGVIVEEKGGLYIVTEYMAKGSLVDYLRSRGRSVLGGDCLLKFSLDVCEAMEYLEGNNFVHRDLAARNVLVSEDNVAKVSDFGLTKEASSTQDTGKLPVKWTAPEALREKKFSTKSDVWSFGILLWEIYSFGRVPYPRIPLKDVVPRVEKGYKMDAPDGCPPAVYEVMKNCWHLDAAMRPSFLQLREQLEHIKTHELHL

For the compound `Cc1ccc(C(=O)Nc2ccc(CN3CCN(CCCN)CC3)c(C(F)(F)F)c2)cc1C#Cc1cnc2cccnn12` [c-ponatinib], the “Av. SC comp.” value on CSK (+ free ponatinib) was determined as 4.5; at MAPK14 (+ free ponatinib), 7.25; on MELK (+ free ponatinib), 1. The “Total SC comp.” value at CSK (+ free ponatinib) is given as 18; at MAPK14 (+ free ponatinib) it was 29; on MELK (+ free ponatinib), 4. Besides, the “Av. SC” value at CSK (no competitor) is 52.25; at MAPK14 (no competitor), 79.25; on MELK (no competitor) it was 5. Also, the “Total SC” value was 209 on CSK (no competitor), 317 at MAPK14 (no competitor) and 20 at MELK (no competitor).

Take `Cc1ccc(C(=O)Nc2ccc(CN3CCN(C)CC3)c(C(F)(F)F)c2)cc1C#Cc1cnc2cccnn12` [ponatinib, Ponatinib]: in the assay with 3T3-SA cells, the “block of necroptotic cell death” value is listed as “capable of blocking necroptotic cell death with comparable potency”. Besides, the protection from necroptosis entry with L929 cells was “the effect was partial and confined to a small dosage window around 100 nM”. In the assay with HT-29 cells, the half-maximal effective concentration (EC50) was 50 nM.

In general, EC50 refers to the concentration needed to bring the measured effect to its halfway point.
